Laboratory results reported in US7138361B2, “Herbicidal heterocycles” (E. I. du Pont de Nemours and Company, priority 2000, dated 2006).

Legend:
Experiment in all cases: Test C preemergence
Type in all cases: in vivo
[1] = test system: common ragweed (Ambrosia elatior)
Excerpt: (§1) Seeds of plant species selected from bermudagrass (Cynodon dactylon), Surinam grass (Brachiaria decumbens), cocklebur (Xanthium strumarium), corn (Zea mays), crabgrass (Digitaria sanguinalis), woolly cupgrass (Eriochloa villosa), giant foxtail (Setaria faberii), goosegrass (Eleusine indica), johnsongrass (Sorghum halepense), kochia (Kochia scoparia), lambsquarters (Chenopodium album), morningglory (Ipomoea hederacea), yellow nutsedge (Cyperus esculentus), pigweed (Amaranthus retroflexus), common ragweed (Ambrosia elatior), soybean (Glycine max) and velvetleaf (Abutilon theophrasti) were planted and treated preemergence with test chemicals formulated in a non-phytotoxic solvent mixture which included a surfactant.
(§2) At the same time, plants selected from these crop and weed species and also winter barley (Hordeum vulgare), blackgrass (Alopecurus myosuroides), canary grass (Phalaris minor), chickweed (Stellaria media), downy brome (Bromus tectorum), green foxtail (Setaria viridis), Italian ryegrass (Lolium multiflorum), wheat (Triticum aestivum), wild oat (Avena fatua) and windgrass (Apera spica-venti) were treated with postemergence applications of some of the test chemicals formulated in the same manner. Plants ranged in height from 2 to 18 cm (1- to 4-leaf stage) for postemergence treatments. Plant species in the flooded paddy test consisted of rice (Oryza saliva), smallflower flatsedge (Cyperus difformis), duck salad (Heteranthera limosa) and barnyardgrass (Echinochloa crus-galli) grown to the 2-leaf stage for testing. Treated plants and controls were maintained in a greenhouse for 12 to 14 days, after which time all species were compared to controls and visually evaluated. Plant response ratings, summarized in Table C, are based on a scale of 0 to 100 where 0 is no effect and 100 is complete control. A dash (-) response means no test result.

[2] = test system: cocklebur (Xanthium strumarium)
Excerpt: as §1, §2

[3] = test system: Surinam grass (Brachiaria decumbens)
Excerpt: as §1, §2

[4] = test system: bermudagrass (Cynodon dactylon)
Excerpt: as §1, §2

[5] = test system: pigweed (Amaranthus retroflexus)
Excerpt: as §1, §2

[6] = test system: lambsquarters (Chenopodium album)
Excerpt: as §1, §2

[7] = test system: yellow nutsedge (Cyperus esculentus)
Excerpt: as §1, §2

[8] = test system: johnsongrass (Sorghum halepense)
Excerpt: as §1, §2

[9] = test system: goosegrass (Eleusine indica)
Excerpt: as §1, §2

[10] = test system: velvetleaf (Abutilon theophrasti)
Excerpt: as §1, §2

[11] = test system: giant foxtail (Setaria faberii)
Excerpt: as §1, §2

kochia (Kochia scoparia) = test system: kochia (Kochia scoparia)
Excerpt: as §1, §2

[12] = test system: crabgrass (Digitaria sanguinalis)
Excerpt: as §1, §2

Nightshade = test system: Nightshade
Excerpt: as §1, §2

[13] = test system: woolly cupgrass (Eriochloa villosa)
Excerpt: as §1, §2

corn (Zea mays) = test system: corn (Zea mays)
Excerpt: as §1, §2

soybean (Glycine max) = test system: soybean (Glycine max)
Excerpt: as §1, §2

Sunflower = conditions: Rate 125 g/ha; scale 0 to 100, 0 no effect, 100 complete control
Excerpt: as §1, §2

[14] = test system: morningglory (Ipomoea hederacea)
Excerpt: as §1, §2

[15] = Rate 125 g/ha, scale 0 to 100, 0 no effect, 100 complete control
[16] = preemergence, Rate 31 g/ha, scale 0 to 100
[17] = preemergence, Rate 62 g/ha, scale 0 to 100
[18] = preemergence, Rate 250 g/ha, scale 0 to 100, 0 no effect, 100 complete control
[19] = Rate 250 g/ha, scale 0 to 100, 0 no effect, 100 complete control

With `CC(C)(C)c1ccn(C2CCN(c3cccc([S+]([O-])C(F)(F)F)c3)C2=O)n1` (centres unmarked) [Compound 101] the “Plant response rating, Ragweed, Common” value [1, 15] was 100, the “Plant response rating, Ragweed, Common” value [1, 16] was 0 and the “Plant response rating, Ragweed, Common” value [1, 17] was 0. The “Plant response rating, Ragweed, Common” value [1, 18] was 100, the “Plant response rating, Cocklebur” value [2, 15] was 0 and the “Plant response rating, Cocklebur” value [2, 16] was 0. For the same compound, the “Plant response rating, Cocklebur” value [2, 17] was 0, the “Plant response rating, Cocklebur” value [2, 18] was 50 and the “Plant response rating, Surinam grass” value [3, 15] was 20. The “Plant response rating, Surinam grass” value [3, 16] was 0, the “Plant response rating, Surinam grass” value [3, 17] was 0 and the “Plant response rating, Surinam grass” value [3, 18] was 40. The “Plant response rating, Bermudagrass” value [4, 15] was 100, the “Plant response rating, Bermudagrass” value [4, 16] was 40 and the “Plant response rating, Bermudagrass” value [4, 17] was 40. The “Plant response rating, Bermudagrass” value [4, 18] was 100, the “Plant response rating, Pigweed” value [5, 15] was 0 and the “Plant response rating, Pigweed” value [5, 16] was 0. For the same compound, the “Plant response rating, Pigweed” value [5, 17] was 0, the “Plant response rating, Pigweed” value [5, 18] was 10 and the “Plant response rating, Lambsquarters” value [6, 15] was 100. For the same compound, the “Plant response rating, Lambsquarters” value [6, 16] was 0, the “Plant response rating, Lambsquarters” value [6, 17] was 0 and the “Plant response rating, Lambsquarters” value [6, 18] was 100. The “Plant response rating, Nutsedge” value [7, 15] was 0, the “Plant response rating, Nutsedge” value [7, 16] was 0 and the “Plant response rating, Nutsedge” value [7, 17] was 0. The “Plant response rating, Nutsedge” value [7, 18] was 0, the “Plant response rating, Johnsongrass” value [8, 15] was 40 and the “Plant response rating, Johnsongrass” value [8, 16] was 0. For the same compound, the “Plant response rating, Johnsongrass” value [8, 17] was 10, the “Plant response rating, Johnsongrass” value [8, 18] was 90 and the “Plant response rating, Goosegrass” value [9, 15] was 100. The “Plant response rating, Goosegrass” value [9, 16] was 10, the “Plant response rating, Goosegrass” value [9, 17] was 100 and the “Plant response rating, Goosegrass” value [9, 18] was 100. For the same compound, the “Plant response rating, Velvetleaf” value [10, 15] was 50, the “Plant response rating, Velvetleaf” value [10, 16] was 20 and the “Plant response rating, Velvetleaf” value [10, 17] was 20. The “Plant response rating, Velvetleaf” value [10, 18] was 90, the “Plant response rating, Foxtail, Giant” value [11, 15] was 40 and the “Plant response rating, Foxtail, Giant” value [11, 16] was 0. For the same compound, the “Plant response rating, Foxtail, Giant” value [11, 17] was 40, the “Plant response rating, Foxtail, Giant” value [11, 18] was 100 and the “Plant response rating, Kochia” value (kochia (Kochia scoparia); [15]) was 0. For the same compound, the “Plant response rating, Kochia” value (kochia (Kochia scoparia); [16]) was 0, the “Plant response rating, Kochia” value (kochia (Kochia scoparia); [17]) was 0 and the “Plant response rating, Kochia” value (kochia (Kochia scoparia); [18]) was 0. The “Plant response rating, Crabgrass” value [12, 15] was 100, the “Plant response rating, Crabgrass” value [12, 16] was 90 and the “Plant response rating, Crabgrass” value [12, 17] was 100. The “Plant response rating, Crabgrass” value [12, 18] was 100, the “Plant response rating, Nightshade” value (Nightshade; Rate 31 g/ha, scale 0 to 100) was 0 and the “Plant response rating, Nightshade” value (Nightshade; Rate 62 g/ha, scale 0 to 100) was 0. The “Plant response rating, Nightshade” value (Nightshade; [15]) was 90, the “Plant response rating, Nightshade” value (Nightshade; [19]) was 100 and the “Plant response rating, Cupgrass, Woolly” value [13, 15] was 20. The “Plant response rating, Cupgrass, Woolly” value [13, 16] was 0, the “Plant response rating, Cupgrass, Woolly” value [13, 17] was 0 and the “Plant response rating, Cupgrass, Woolly” value [13, 18] was 100. For the same compound, the “Plant response rating, Corn” value (corn (Zea mays); [15]) was 0, the “Plant response rating, Corn” value (corn (Zea mays); [16]) was 0 and the “Plant response rating, Corn” value (corn (Zea mays); [17]) was 0. For the same compound, the “Plant response rating, Corn” value (corn (Zea mays); [18]) was 60, the “Plant response rating, Soybean” value (soybean (Glycine max); [15]) was 0 and the “Plant response rating, Soybean” value (soybean (Glycine max); [16]) was 0. For the same compound, the “Plant response rating, Soybean” value (soybean (Glycine max); [17]) was 0, the “Plant response rating, Soybean” value (soybean (Glycine max); [18]) was 50 and the “Plant response rating, Sunflower” value (Sunflower) was 0. The “Plant response rating, Morningglory” value [14, 15] was 0, the “Plant response rating, Morningglory” value [14, 16] was 0 and the “Plant response rating, Morningglory” value [14, 17] was 0. For the same compound, the “Plant response rating, Morningglory” value [14, 18] was 100.

For `CCOc1cc(N2CCC(n3ccc(C(C)(C)C)n3)C2=O)ccc1C` (centres unmarked) [Compound 106], the “Plant response rating, Ragweed, Common” value [1, 15] was 100, the “Plant response rating, Ragweed, Common” value [1, 16] was 80 and the “Plant response rating, Ragweed, Common” value [1, 17] was 100. The “Plant response rating, Ragweed, Common” value [1, 18] was 100, the “Plant response rating, Cocklebur” value [2, 15] was 90 and the “Plant response rating, Cocklebur” value [2, 16] was 70. For the same compound, the “Plant response rating, Cocklebur” value [2, 17] was 90, the “Plant response rating, Cocklebur” value [2, 18] was 100 and the “Plant response rating, Surinam grass” value [3, 15] was 90. The “Plant response rating, Surinam grass” value [3, 16] was 30, the “Plant response rating, Surinam grass” value [3, 17] was 90 and the “Plant response rating, Surinam grass” value [3, 18] was 100. For the same compound, the “Plant response rating, Bermudagrass” value [4, 15] was 100, the “Plant response rating, Bermudagrass” value [4, 16] was 100 and the “Plant response rating, Bermudagrass” value [4, 17] was 100. The “Plant response rating, Bermudagrass” value [4, 18] was 100, the “Plant response rating, Pigweed” value [5, 15] was 100 and the “Plant response rating, Pigweed” value [5, 16] was 70. For the same compound, the “Plant response rating, Pigweed” value [5, 17] was 100, the “Plant response rating, Pigweed” value [5, 18] was 90 and the “Plant response rating, Lambsquarters” value [6, 15] was 100. For the same compound, the “Plant response rating, Lambsquarters” value [6, 16] was 100, the “Plant response rating, Lambsquarters” value [6, 17] was 100 and the “Plant response rating, Lambsquarters” value [6, 18] was 100. The “Plant response rating, Nutsedge” value [7, 15] was 80, the “Plant response rating, Nutsedge” value [7, 16] was 10 and the “Plant response rating, Nutsedge” value [7, 17] was 10. For the same compound, the “Plant response rating, Nutsedge” value [7, 18] was 100, the “Plant response rating, Johnsongrass” value [8, 15] was 100 and the “Plant response rating, Johnsongrass” value [8, 16] was 30. The “Plant response rating, Johnsongrass” value [8, 17] was 70, the “Plant response rating, Johnsongrass” value [8, 18] was 100 and the “Plant response rating, Goosegrass” value [9, 15] was 100. For the same compound, the “Plant response rating, Goosegrass” value [9, 16] was 100, the “Plant response rating, Goosegrass” value [9, 17] was 100 and the “Plant response rating, Goosegrass” value [9, 18] was 100. For the same compound, the “Plant response rating, Velvetleaf” value [10, 15] was 100, the “Plant response rating, Velvetleaf” value [10, 16] was 90 and the “Plant response rating, Velvetleaf” value [10, 17] was 100. The “Plant response rating, Velvetleaf” value [10, 18] was 100, the “Plant response rating, Foxtail, Giant” value [11, 15] was 40 and the “Plant response rating, Foxtail, Giant” value [11, 16] was 0. The “Plant response rating, Foxtail, Giant” value [11, 17] was 0, the “Plant response rating, Foxtail, Giant” value [11, 18] was 100 and the “Plant response rating, Kochia” value (kochia (Kochia scoparia); [15]) was 100. For the same compound, the “Plant response rating, Kochia” value (kochia (Kochia scoparia); [16]) was 100, the “Plant response rating, Kochia” value (kochia (Kochia scoparia); [17]) was 100 and the “Plant response rating, Kochia” value (kochia (Kochia scoparia); [18]) was 100. For the same compound, the “Plant response rating, Crabgrass” value [12, 15] was 100, the “Plant response rating, Crabgrass” value [12, 16] was 100 and the “Plant response rating, Crabgrass” value [12, 17] was 100. The “Plant response rating, Crabgrass” value [12, 18] was 100, the “Plant response rating, Nightshade” value (Nightshade; Rate 31 g/ha, scale 0 to 100) was 100 and the “Plant response rating, Nightshade” value (Nightshade; Rate 62 g/ha, scale 0 to 100) was 100. For the same compound, the “Plant response rating, Nightshade” value (Nightshade; [15]) was 100, the “Plant response rating, Nightshade” value (Nightshade; [19]) was 100 and the “Plant response rating, Cupgrass, Woolly” value [13, 15] was 100. For the same compound, the “Plant response rating, Cupgrass, Woolly” value [13, 16] was 60, the “Plant response rating, Cupgrass, Woolly” value [13, 17] was 100 and the “Plant response rating, Cupgrass, Woolly” value [13, 18] was 100. The “Plant response rating, Corn” value (corn (Zea mays); [15]) was 0, the “Plant response rating, Corn” value (corn (Zea mays); [16]) was 0 and the “Plant response rating, Corn” value (corn (Zea mays); [17]) was 0. For the same compound, the “Plant response rating, Corn” value (corn (Zea mays); [18]) was 40, the “Plant response rating, Soybean” value (soybean (Glycine max); [15]) was 100 and the “Plant response rating, Soybean” value (soybean (Glycine max); [16]) was 80. The “Plant response rating, Soybean” value (soybean (Glycine max); [17]) was 100, the “Plant response rating, Soybean” value (soybean (Glycine max); [18]) was 100 and the “Plant response rating, Sunflower” value (Sunflower) was 80. The “Plant response rating, Morningglory” value [14, 15] was 100, the “Plant response rating, Morningglory” value [14, 16] was 80 and the “Plant response rating, Morningglory” value [14, 17] was 90. The “Plant response rating, Morningglory” value [14, 18] was 100.
